Data: patent publication US6214811A, “Acyclovir diester derivatives” (Drug Innovation & Design, Inc., priority 2000, dated 2001)

Columns and labels:
herpes simplex labialis = settings: cited from earlier work
[1] = tested on: dermal herpes simplex virus-1 (HSV-1) infection; experiment: Dermal HSV-1 infection in guinea pigs, topical treatment (lesion number, lesion area, skin virus titer); assay type: in vivo, guinea pig (Female Hartley outbred); settings: for effectiveness in reducing dermal HSV-1 virus infection compared with acyclovir and phosphotriester prodrugs (in words): dermal HSV-1 infection; for lesion number, lesion area and lesion virus titer (summary in words): guinea pigs with dermal HSV-1 infections, compared to vehicle/placebo
Protocol: The formulation for Prodrug 1 contained 5% EL-620 EMULPHOR (polyoxyethylated castor oil) (Rhone Poluenc), 5% CARBOPOL (Carboxypolymethylene, sodium salt) (B. F. Goodrich), 10% ethanol and 2% by weight Prodrug 1. The balance of the formulation consisted of water.
EL-620 EMULPHOR and water were mixed and ultrasonicated to give a clear emulsion, to which the ethanol was added. The prodrug was then added, and the mixture was ultrasonicated. The sodium carbopol was then added to the emulsion and mixed until to homogeneity.
The placebo was prepared identically to the pharmaceutical compositions except that the prodrugs were omitted.
The pharmaceutical compositions were stored at room temperature.
Female Hartley outbred guinea pigs, 400 to 450 grams, were obtained from Charles River Breeding Labs, Wilmington, Mass. Animals were anesthetized with 25 mg/kg ketamine and 5 mg/kg xylazine SQ. Hair on the dorsum from the shoulders to the rump was removed with electric clippers followed by two 5-10 minute applications of a chemical depilatory. A grid of four areas was demarcated with a pen on both sides of the spine at levels corresponding to mid back and rump.
Undiluted HSV-1 virus stock (0.035 ml) was applied to each different area and introduced through the skin at well-spaced sites at ten activations of a six-pronged spring-loaded vaccination instrument (Sterneedle, Pan Ray Division, Ormont Drug, Englewood, N.J.). The day of inoculation is Day 0. Approximately 250 mg of drug or placebo was applied to the areas according to the dosing regimen on Days 1, 2 and 3. Eight guinea pigs were used during the experiments allowing eight comparisons between each drug and its placebo.
On Day 4 regrown hair on the dorsum of the guinea pigs was removed with one 3-4 minute application of a chemical depilatory. HSV lesions were counted and Polaroid pictures of the animals' backs were taken. The animals were sacrificed using CO2 gas and the full thickness skin of the back was removed by dissection. The square of the skin from each of the four treatment areas was placed into 15 mls of tissue culture medium with 2% FES in an ice bath. The samples were then homogenized in a stomacher Lab Blender 80 (Tekmar Co.). Debris was pelleted by centrifugation and the supernatants collected and frozen at -70° C. until assay for infectivity by plaque formation in VERO cells.
The mean and standard deviation for number of lesions, total lesion area and lesion virus titer were computed. Paired data (drug/vehicle) were evaluated by the Wilcoxon signed-rank test using percent differences between log10 derivatives of mean lesions severity at drug-treated sites compared to the Vehicle-treated sites.
Prodrug 2 was formulated as described in Example 1. One Hartley guinea pig was inoculated with HSV-1 as described in Example 1. The guinea pig was treated with Prodrug 2 according to the protocol used in Example 1 for Prodrug 1.

pig liver esterase = experiment: Incubation with pig liver esterase in phosphate buffered D2O, NMR; assay type: in vitro ADME
Source text: This assay is described in Glazier, WO 91/19721 entitled "Phosphorus Prodrugs" and can be used to determine suitable hydroxyl or amino protecting groups which can be cleaved in vivo. The entire teachings of […] are incorporated herein by reference. It is to be understood that there are other in vitro assays known to one of ordinary skill in the art employing esterases, amidases or enzymes capable of cleaving carbonate, carbamate, ester and amide groups which can also be used to determine suitable protecting groups.

[2] = guinea pigs, topical, 2% by weight Prodrug 1 formulation, Days 1, 2 and 3, vs placebo (p<0.01)

## Nc1nc2c(ncn2COCCO)c(=O)[nH]1 [acyclovir]
Herpes simplex labialis; oral
  effectiveness of oral acyclovir in cold sores: only partially effective
Herpes simplex labialis; topical
  response of cold sores to topical acyclovir: do not respond

## COC(=O)CC(OP(=O)(O)OCCOCn1cnc2c(=O)[nH]c(N)nc21)c1ccc(OC(C)=O)cc1 (centres unmarked) [Prodrug 2, sodium 2-((9-guanylyl)methyl)oxy)ethyl-1-(4-acetoxyphenyl)-2-((methoxy)carbonyl)ethyl phosphate]
[1]
  effectiveness in reducing dermal HSV-1 virus infection compared with acyclovir and phosphotriester prodrugs (in words): more Effective in Reducing Dermal HSV-1 Virus Infection than Acyclovir
  lesion number, lesion area and lesion virus titer (summary in words): dramatic reduction in lesion number, in lesion area and in lesion virus titer
[1]; one Hartley guinea pig, formulated as in Example 1, compared with Prodrug 1 in Example 1
  reduction in lesion number, lesion area and skin viral titers (in words): comparable reduction in lesion number, lesion area and in skin viral titers

## COC(=O)CC(OP(=O)(O)OCCOCn1cnc2c(=O)[nH]c(N)nc21)c1ccc(OC(=O)C(C)(C)C)cc1 (centres unmarked) [Prodrug 1, Sodium 2-((9-Guanylyl)methyl)oxy)ethyl 1-(4-((2,2-dimethylpropionyl)oxy)-phenyl)-2-((methoxy)carbonyl)ethyl phosphate]
[1]
  effectiveness in reducing dermal HSV-1 virus infection compared with acyclovir and phosphotriester prodrugs (in words): more Effective in Reducing Dermal HSV-1 Virus Infection than Acyclovir
  lesion number, lesion area and lesion virus titer (summary in words): dramatic reduction in lesion number, in lesion area and in lesion virus titer
[1]; [2]
  reduction in lesion area: 79%
  reduction in lesion number: 72%
  reduction in skin viral titers: 93%
Pig liver esterase
  degradation by esterase, products by NMR: degraded to acyclovir monophosphate and p-hydroxycinnamic
